Here are results for 37 compounds from patent US7829560B2, “1,4-disubstituted naphthalenes as inhibitors of P38 MAP kinase” (Arqule, Inc., priority 2004, dated 2010).

Assay [1] relates to TNFα release from THP-1 cells. As to the kind of experiment: Inhibition of TNFα release from LPS-stimulated THP-1 cells, ELISA. Particulars: Homo sapiens, THP-1, THP-1 cells, read-out: [CELL] THP-1, IC50, TNF ALPHA, ELISA. The class given is cell-based. In short, it runs like this: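 Human THP-1 monocytes, 10^6 cells/ml in RPMI with 10% FBS, no serum or 1% HSA, preincubated 30 min at 37 °C with compound (≤0.5% DMSO), then stimulated with 10 μg/ml LPS for 18 h. Supernatant TNFα measured by ELISA; IC50 from non-linear dose-response regression.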
For orientation: In an ELISA, binding on a coated surface is turned into a signal by an enzyme label.

The target in a further assay is T1, p38α (Homo sapiens, UniProt Q16539).
T1 construct: p38 MAP Kinases are recombinant human full-length proteins with an amino-terminal GST fusion; GST (N); purchased Upstate Biotechnology Inc; host or cells: E. coli
T1 sequence (Q16539 whole entry, the tested form may be a part): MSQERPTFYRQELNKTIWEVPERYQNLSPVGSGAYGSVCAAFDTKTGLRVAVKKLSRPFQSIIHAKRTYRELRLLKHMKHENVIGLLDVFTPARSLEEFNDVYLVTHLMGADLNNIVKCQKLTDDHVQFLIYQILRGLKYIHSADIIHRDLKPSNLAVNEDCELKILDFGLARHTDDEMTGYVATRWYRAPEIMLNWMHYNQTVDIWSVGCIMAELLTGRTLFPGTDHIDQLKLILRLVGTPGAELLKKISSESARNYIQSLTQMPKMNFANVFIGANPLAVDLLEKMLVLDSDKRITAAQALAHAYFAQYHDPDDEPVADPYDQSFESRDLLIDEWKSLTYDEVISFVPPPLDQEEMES
As to the kind of experiment: p38 MAP Kinase assay: inhibition of ATF2 phosphorylation, ELISA. The format is biochemical. The note with it: for inhibition at 10 µM: substrate ATF2, read-out: [ENZ] P38 ALPHA, PCT INH, ELISA (10 uM;ATF2) (Percent); for IC50: ATF2 phosphorylation, read-out: [ENZ] P38 ALPHA, IC50, ELISA. The procedure, abridged:
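GST-tagged full-length human p38 MAP kinase with GST-ATF2 (aa 19–96; 1.25 μM) and 40 μM ATP in HEPES pH 7.5 buffer, without (Method I) or with (Method II) 1% human serum albumin. Compound pre-incubated 15 min at room temperature; reaction 30 min at 37 °C; ATF2 Thr69 phosphorylation measured by ELISA (A450).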

For `Cc1cc(C(=O)Nc2ccc(OCCN3CCOCC3)c3ccccc23)cc(N2CCCC2C)n1` (stereo not shown) [Compound B155, 2-Methyl-6-(2-methyl-pyrrolidin-yl)-N-[4-(2-morpholin-4-yl-ethoxy)-naphthalen-1-yl]-isonicotinamide], the IC50 in assay [1] was 2.45 µM. For the same compound, at p38α, the inhibition at 10 µM is 89% and the IC50 was 0.745 µM.
Turning to `Cc1cccc(-c2cccc(C(=O)Nc3ccc(OCCN4CCOCC4)c4ccccc34)c2)c1C` [Compound B296], the figures for the IC50 (in assay [1]; at p38α) were 8.71 µM and 1.88 µM, respectively.
For the compound `O=C(Nc1ccc(OCCN2CCC3(CC2)OCCO3)c2ccccc12)c1cc(F)cc(N2CCCCC2)c1` [Compound B159, N-{4-[2-(1,4-Dioxa-8-aza-spiro[4.5]dec-8-yl)-ethoxy]-naphthalen-1-yl}-3-fluoro-5-piperidin-1-yl-benzamide], the IC50 in assay [1] is more than 10 µM; on p38α, 1.09 µM. Moreover, the inhibition at 10 µM on p38α was 72.5%.
For the compound `O=C(Nc1ccc(OCCN2CCOCC2)c2ccccc12)c1cccc(-c2ccc(F)cc2F)c1` [Compound B100], the IC50 in assay [1] is 1.59 µM; on p38α it was 0.744 µM. In addition, the inhibition at 10 µM at p38α turned out to be 86%.
On to `CCN(C)c1cc(C(=O)Nc2ccc(OCCN3CCOCC3)c3ccccc23)ccn1` [Compound B133, 2-(Ethyl-methyl-amino)-N-[4-(2-morpholin-4-yl-ethoxy)-naphthalen-1-yl]-isonicotinamide], for which the concentration for half-maximal inhibition (IC50) in assay [1] turned out to be 8.5 µM. At p38α, the inhibition at 10 µM is 52% and the IC50 was determined as 7.68 µM.
For `O=C(Nc1ccc(OCCN2CCOCC2)c2ccccc12)c1cc(Cl)nc(N2CCOCC2)c1` [Compound B305], the figures for the IC50 (in assay [1]; on p38α) were 2.48 µM and 1.41 µM, respectively.
Regarding `CC1=NCCN1c1nccc(Oc2ccc(NC(=O)c3cc(F)cc(N4CCCCC4)c3)c3ccccc23)n1` [Compound B417, 3-Fluoro-N-(4-{[2-(2-methyl-4,5-dihydro-1 H-imidazol-1-yl)pyrimidin-4-yl]oxy}-1-naphthyl)-5-piperidin-1-ylbenzamide], the figures for the IC50 (in assay [1]; at p38α) were 0.336 µM and 0.0127 µM, respectively.
For `CN(C)c1ccccc1C(=O)Nc1ccc(OCCN2CCOCC2)c2ccccc12` [Compound B35], in that order: more than 10 µM and more than 100 µM.
Regarding `CCc1ccccc1-c1cccc(C(=O)Nc2ccc(OCCN3CCOCC3)c3ccccc23)c1` [Compound B291], the IC50 in assay [1] was determined as 6.14 µM; at p38α, 9.19 µM.
For `O=C(Nc1ccc(OCCN2CCOCC2)c2ccccc12)c1cc(F)cc(N2CCOCC2)c1` [Compound B206, 3-Fluoro-5-morpholin-4-yl-N-[4-(2-morpholin-4-ylethoxy)-1-naphthyl]benzamide], in that order: 4.23 µM and 1.02 µM.
As to `COc1ccc(F)cc1-c1cccc(C(=O)Nc2ccc(OCCN3CCOCC3)c3ccccc23)c1` [Compound B289], the IC50 in assay [1] was 3.09 µM; on p38α it was 1.47 µM.
For `COc1ccc(C(C)C)cc1-c1cccc(C(=O)Nc2ccc(OCCN3CCOCC3)c3ccccc23)c1` [Compound B294], in that order: more than 10 µM and more than 10 µM.
The like results for `O=C(Nc1ccc(Oc2ccnc(NC3(CO)CCCC3)n2)c2ccccc12)c1cc(F)cc(N2CCCCC2)c1` [Compound B399, 3-Fluoro-N-{4-[(2-{[1-(hydroxymethyl)cyclopentyl]amino}pyrimidin-4-yl)oxy]-1-naphthyl}-5-piperidin-1-ylbenzamide] were, in that order, 0.136 µM and 0.0127 µM.
As for `CN(C)c1cccc(C(=O)Nc2ccc(OCCN3CCOCC3)c3ccccc23)c1` [Compound B33], the IC50 in assay [1] was more than 10 µM; on p38α, 29.8 µM.
For the compound `CC1CCCC(C)N1c1cc(F)cc(C(=O)Nc2ccc(OCCN3CCOCC3)c3ccccc23)c1` (stereo not shown) [Compound B205, 3-(2,6-Dimethylpiperidin-1-yl)-5-fluoro-N-[4-(2-morpholin-4-ylethoxy)-1-naphthyl]benzamide], the IC50 in assay [1] was more than 10 µM; on p38α, 1.68 µM.
For the compound `CC1CCCCN1c1cc(F)cc(C(=O)Nc2ccc(OCCN3CCOCC3)c3ccccc23)c1` (stereo not shown) [Compound B201, 3-Fluoro-5-(2-methylpiperidin-1-yl)-N-[4-(2-morpholin-4-ylethoxy)-1-naphthyl]benzamide], the IC50 in assay [1] was 4.73 µM; at p38α, 0.323 µM.
With `COc1cccc(-c2cccc(C(=O)Nc3ccc(OCCN4CCOCC4)c4ccccc34)c2)c1` [Compound B91], in assay [1], the IC50 came to 3.55 µM. Also, at p38α, the inhibition at 10 µM was found to be 78% and the IC50 is 0.9 µM.
Turning to `CC(C)(C)C1CCC(Oc2cc(F)cc(C(=O)Nc3ccc(OCc4ccncc4)c4ccccc34)c2)CC1` (stereo not shown) [Compound B236], the IC50 (in assay [1]; at p38α) was more than 10 µM throughout.
Consider `CN(C)CC(C)(C)CNc1nccc(Oc2ccc(NC(=O)c3cc(F)cc(N4CCOCC4)c3)c3ccccc23)n1` [Compound B317, N-{4-[2-(3-Dimethylamino-2,2-dimethyl-propylamino)-pyrimidin-4-yloxy]-naphthalen-1-yl}-3-fluoro-5-morpholin-4-yl-benzamide], for which the IC50 in assay [1] amounted to 0.0238 µM; on p38α, 0.0099 µM.
The like results for `CCN1CCC[C@H]1CNc1nccc(Oc2ccc(NC(=O)c3cc(F)cc(N4CCOCC4)c3)c3ccccc23)n1` [Compound B360] were, in that order, 0.063 µM and 0.0225 µM.
With `Cc1ccc(-c2cccc(C(=O)Nc3ccc(OCCN4CCOCC4)c4ccccc34)c2)c(C)c1` [Compound B299], the IC50 (in assay [1]; at p38α) was more than 10 µM each time.
In the case of `Cc1cc(C(=O)Nc2ccc(OCCN3CCOCC3)c3ccccc23)cc(N2CCC(C)CC2)n1` [Compound B154, 4,6′-Dimethyl-3,4,5,6-tetrahydro-2H-[1,2′]bipyridinyl-4′-carboxylic acid [4-(2-morpholin-4-yl-ethoxy)-naphthalen-1-yl]-amide], the IC50 in assay [1] is 2.53 µM; on p38α, 2.72 µM. Besides, the inhibition at 10 µM at p38α was found to be 71%.
Turning to `CN(C)C(=O)[C@@H]1CCCN1c1nccc(Oc2ccc(NC(=O)c3cc(F)cc(N4CCOCC4)c3)c3ccccc23)n1` [Compound B356], the results for the IC50 (in assay [1]; on p38α) were more than 1 µM and 0.264 µM, respectively.
For `CNc1nccc(Oc2ccc(NC(=O)c3cc(F)cc(N4CCOCC4)c3)c3ccccc23)n1` [Compound B251, 3-Fluoro-N-(4-{[2-(methylamino)pyrimidin-4-yl]oxy}-1-naphthyl)-5-morpholin-4-ylbenzamide], in that order: 0.765 µM and 0.135 µM.
As to `COc1ccc(-c2cccc(C(=O)Nc3ccc(OCCN4CCOCC4)c4ccccc34)c2)cc1F` [Compound B290], the IC50 (in assay [1]; on p38α) was more than 10 µM throughout.
For `CN(CCO)c1nccc(Oc2ccc(NC(=O)c3cc(F)cc(N4CCCCC4)c3)c3ccccc23)n1` [Compound B373], the IC50 worked out at 0.674 µM in assay [1] and 0.0209 µM at p38α.
For `CC1CCN(c2cc(C(=O)Nc3ccc(OCCN4CCOCC4)c4ccccc34)cc(Cl)n2)CC1` [Compound B218], in that order: 3.58 µM and 0.876 µM.
Regarding `O=C(Nc1ccc(OCCN2CCOCC2)c2ccccc12)c1cccc(-c2cccc(OC(F)(F)F)c2)c1` [Compound B297], the IC50 (in assay [1]; on p38α) was more than 10 µM in each case.
Take `CC(=O)Nc1cccc(C(=O)Nc2ccc(OCCN3CCOCC3)c3ccccc23)c1` [Compound B32]: the IC50 in assay [1] is more than 10 µM; at p38α, 7.49 µM.
As to `O=C(Nc1ccc(OCCCN2CCC(O)CC2)c2ccccc12)c1cc(F)cc(N2CCCCC2)c1` [Compound B162, 3-Fluoro-N-{4-[3-(4-hydroxy-piperidin-1-yl)-propoxy]-naphthalen-1-yl}-5-piperidin-1-yl-benzamide], the concentration for half-maximal inhibition (IC50) was more than 10 µM in assay [1] and 9.89 µM at p38α. Besides, at p38α, the inhibition at 10 µM amounted to 59.5%.
In the case of `O=C(Nc1ccc(OCCN2CCOCC2)c2ccccc12)c1ccnc(N2CCCC2)c1` [Compound B45, N-[4-(2-Morpholin-4-yl-ethoxy)-naphthalen-1-yl]-2-pyrrolidin-1-yl-isonicotinamide], the results for the IC50 (in assay [1]; on p38α) were 1.19 µM and 2.12 µM, respectively.
For `O=C(Nc1ccc(OCCN2CCOCC2)c2ccccc12)c1cc(F)cc(N2CCc3ccccc3C2)c1` [Compound B200], in that order: more than 10 µM and more than 10 µM.
The like results for `O=C(Nc1ccc(NCCN2CCOCC2)c2ccccc12)c1cc(F)cc(N2CCCCC2)c1` [Compound B242] were, in that order, 10.6 µM and 2.03 µM.
The like results for `O=C(Nc1ccc(OCCN2CCOCC2)c2ccccc12)c1cccc(-c2ccc(F)cc2)c1` [Compound B277] were, in that order, 1.84 µM and 0.777 µM.
`CN1CCN(c2cccc(C(=O)Nc3ccc(OCCN4CCOCC4)c4ccccc34)c2)CC1` [Compound B59]: the IC50 (in assay [1]; at p38α) was more than 10 µM throughout.
As to `COc1cccc(OC)c1-c1cccc(C(=O)Nc2ccc(OCCN3CCOCC3)c3ccccc23)c1` [Compound B108], in assay [1], the IC50 turned out to be 2.26 µM. On p38α, the inhibition at 10 µM is 42% and the IC50 is more than 10 µM.
Turning to `O=C(Nc1ccc(OCCN2CCOCC2)c2ccccc12)c1cc(N2CCOCC2)nc(Cl)n1` [Compound B42, 2-Chloro-6-morpholin-4-yl-pyrimidine-4-carboxylic acid [4-(2-morpholin-4-yl-ethoxy)-naphthalen-1-yl]-amide], the values for the IC50 (in assay [1]; at p38α) were more than 1 µM and 6.34 µM, respectively.

One may read the IC50 as the concentration at which inhibition is half-maximal.
